Test results reported in publication PMC11767819, “Drug Screening of Flavonoids as Potential VEGF Inhibitors Through Computational Docking and Cell Models” (Molecules, 2025).
Read-outs that look alike come from different tables or passages of the source.

What was measured:
NF-κB in RAW 264.3 cells = assay: Luciferase activity of NF-κB, VEGF-induced; assay type: cell-based; settings: chemicals 1, 10 and 25 µM, avastin 10 ng/mL
Experimental: The luciferase of NK-κB activity was performed following a previous report. Briefly, RAW 264.3 cells were transfected with pNF-κB (Thermo Fisher Scientific) using jetPRIME and incubated for 24 h. The refresh medium was replaced every four hours, and drug treatments were added twice after 24 h or 48 h. Upon completion of the reaction, the chemical luminescent intensity was determined by a luminometer (Promega, WI, USA) and normalized by protein concentrations.

[1] = Chemical stability test through HPLC analysis; assay type: physicochemical; settings: for Inter-Day RSD / Inter-Day Mean Peak Area: 6 consecutive days; for Inter-Day RSD / Intra-Day RSD: n = 6; for Inter-Day Mean Peak Area / Intra-Day Mean Peak Area: n = 6, 210 nm; for Intra-Day RSD / Intra-Day Mean Peak Area: same day; for Stability in aqueous solution (in words): acidic, neutral and basic conditions, HPLC
Excerpt: Chemical degradation has been a major factor resulting in molecular hydrolysis, oxidation, light-catalyzed degradation and so on. Therefore, stability in aqueous solution, including acidic, neutral and basic conditions, has become a crucial requirement for a promising drug candidate. Prior to the biochemical assay, three phytochemicals were subjected to HPLC analysis to determine their stabilities in various solutions. Glycine buffer (pH 8–11), PBS (pH 7–8) and acetate buffer (pH 4–6) were employed to cover the main pH ranges. […].
The stability test was validated by determining the intra-day and inter-day variability through HPLC analysis, which was performed on an Agilent 1200 Liquid Chromatography (Santa Clara, CA, USA) equipped with an ODS C18 column (4.6 mm × 250 mm). Glycine buffer (pH 8–11), PBS (pH 7–8) and acetate buffer (pH 4–6) were employed to cover main pH ranges. Stock solutions at a concentration of 10 mM of the test compounds were prepared in DMSO and stored at −20 °C, while working concentrations were prepared at 1–5 μM solution in DMSO and buffers. Chromatography was conducted through the ORBAX XDB-C18 column (Agilent, 4.6 × 50 mm, 1.8 μm). The mobile phase was a mixture of water and acetonitrile (95:5, v/v), and the elution time was 15 min. The mobile phase flow rate and injection volume were 1.0 mL/min and 10 μL, respectively. Analytes were detected at a 210 nm wavelength. The intra-day and inter-day stability was calculated by analyzing six replicates of the standard solution of the two analytes during a single day and six replicates of the samples detected on six consecutive days, respectively. Thereafter, the relative standard deviation (RSD) was determined as a measurement of stability.

HaCaT cells [2] = assay: Wound closure (wound healing) assay, VEGF-induced; assay type: cell-based; settings: Homo sapiens, 20 h, read-out: IC50 of inhibition of wound recovery rate
Experimental: Photos of each cell scrape at 0 (At0) and 20 h (At20) were captured with microscope and imaging software (Zen, https://www.zeiss.com/microscopy/en/home.html, accessed on 1 September 2024) at a 10× magnification. […] A: positive control, Avastin; F: farrerol; O: ononin; E: (−)-epicatechin.
A wound closure assay was performed on cultured HaCaT cells to study cell migration in vitro. Procedures were described previously by Guo et al.. Briefly, HaCaT cells were seeded onto a 12-well plate with a density of 3 × 10^5 cells/well. Treatments were given when cells grew to full confluency. After serum starvation, sterile 200 μL pipette tips were used to make a vertical and a horizontal scrape on the cell monolayer in a consistent manner. Cells were washed with PBS and treated with drugs at various concentrations. Photos of each cell scrape at 0 (At0) and 20 h (At20) were captured with a microscope and imaging software (Zen) at a 10× magnification. The software TScratch (CSE lab, Zurich, Switzerland, https://github.com/cselab/TScratch, accessed on 1 September 2024) was used to analyze the open area of each scrape photo at different timepoints. Quantification of the recovery rate of the wound was calculated based on the following equation: wound closure (%) = (At0 − At20)/At20 × 100%.

HaCaT cells [3] = assay: MTT cell viability assay; assay type: cell-based, human; settings: concentrations up to 100 µM, 24 h
Experimental: Cell viability was assessed with the MTT assay to evaluate the potential toxicity effect of the tested drugs. HaCaT cells were seeded onto 96-well plates for 24 h prior to drug treatments. After incubations for 24 h, an MTT solution in a final concentration of 0.5 mg/mL was added to each well. Following another 3 h of incubation, DMSO solvent was used to dissolve the purple formazan crystals generated in each well. The absorbance of the samples at 570 nm was measured using a microplate reader (Thermo Fisher Scientific). The cell viability was calculated as follows: cytotoxicity (%) = (experimental value − low control)/(high control − low control) × 100%.

VEGF protein = molecular target: T1, VEGF protein (Homo sapiens, UniProt P15692); assay: Ultrafiltration-based affinity assay; assay type: binding; settings: ligand 0.02 µM, VEGF protein 0.02 µM, 4 °C, 2 h, n = 4
T1 construct: purchased MCE
T1 sequence (P15692 1-191 isoform P15692-4): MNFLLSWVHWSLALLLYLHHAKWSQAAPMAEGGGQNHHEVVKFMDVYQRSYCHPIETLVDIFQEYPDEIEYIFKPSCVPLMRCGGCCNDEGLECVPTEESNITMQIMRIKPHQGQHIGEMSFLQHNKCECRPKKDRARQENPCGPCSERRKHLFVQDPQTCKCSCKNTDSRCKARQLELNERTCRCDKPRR
Experimental: Caco-2 cells were cultured until fully differentiated after being cultured for 21 days, and the integrity of cell monolayer was determined by the transepithelial electrical resistance (TEER). * p < 0.05. […] Red curve: initial concentration of chemicals; black curve: concentration of chemicals binding to the protein (Cpre − Cpost). n = 4.
The binding affinity was evaluated through the previous approach. Specifically, the tested ligands at 0.02 µM were mixed with or without 0.02 µM of the VEGF protein (MCE, Monmouth Junction, NJ, USA) and incubated in Milli-Q water (Burlington, MA, USA) at 4 °C for 2 h. The mixture was transferred to a 0.5 mL ultrafiltration tube (2000 MW cutoff; Sartorius Stedim Biotech, Gottingen, Germany). After multiple rounds of centrifugation, the supernatant was further analyzed through HPLC investigation, as described above in Section 4.6.

endothelial cells = settings: cell proliferation and migration in endothelial cells, phosphorylation of PI3-K/Akt, JNK and eNOS; cited from earlier work
tumor growth = settings: nude mice; cited from earlier work

Row | Compound | Effect on VEGF-induced NF-κB activity (in words) (NF-κB in RAW 264.3 cells) | Inter-Day RSD ([1]; acidic (acetate buffer pH 4–6)) | Inter-Day Mean Peak Area ([1]; acidic (acetate buffer pH 4–6)) | Intra-Day RSD ([1]; acidic (acetate buffer pH 4–6)) | Intra-Day Mean Peak Area ([1]; acidic (acetate buffer pH 4–6)) | Stability in aqueous solution (in words) [1] | Inter-Day RSD ([1]; basic (glycine buffer pH 8–11)) | Inter-Day Mean Peak Area ([1]; basic (glycine buffer pH 8–11)) | Intra-Day RSD ([1]; basic (glycine buffer pH 8–11)) | Intra-Day Mean Peak Area ([1]; basic (glycine buffer pH 8–11)) | Inter-Day RSD ([1]; neutral (PBS pH 7–8)) | Inter-Day Mean Peak Area ([1]; neutral (PBS pH 7–8)) | Intra-Day RSD ([1]; neutral (PBS pH 7–8)) | Intra-Day Mean Peak Area ([1]; neutral (PBS pH 7–8)) | IC50 (HaCaT cells [2]; HaCaT cells, VEGF-induced) | Cell viability (cytotoxic effect) (HaCaT cells [3]) | protein binding degree (VEGF protein) | IC50 (HaCaT cells [2]; HaCaT) | Inhibition of VEGF-mediated biological activities (in words) (endothelial cells) | Tumor growth (in words) (tumor growth)
1 | Oc1cc(O)c2c(c1)O[C@H](c1ccc(O)c(O)c1)[C@H](O)C2 [(−)-epicatechin] | suppressed in dose-dependent manners | 11.91% | 2510.4 | 3.98% | 2751.5 | some mild degradation of (−)-epicatechin was induced in acidic and basic environments | 13.58% | 2519.4 | 4.85% | 2726.0 | 7.56% | 2601.7 | 1.38% | 2826.6 | 9.2 µM | cells remained unaffected | 50.3% |  |  | 
2 | Cc1c(O)c(C)c2c(c1O)C(=O)C[C@@H](c1ccc(O)cc1)O2 [farrerol] |  | 5.89% | 38,145.2 | 4.09% | 31,803.7 | relatively stable in diverse aqueous conditions | 6.54% | 35,412.4 | 2.81% | 33,332.4 | 4.43% | 36,478.1 | 4.79% | 31,542.0 |  | cells remained unaffected | 58.3% | 4.7 µM |  | 
3 | COc1ccc(-c2coc3cc(O[C@@H]4O[C@H](CO)[C@@H](O)[C@H](O)[C@H]4O)ccc3c2=O)cc1 [ononin] | suppressed in dose-dependent manners | 4.12% | 275,981.3 | 1.93% | 254,398.2 | relatively stable in diverse aqueous conditions | 4.78% | 274,514.7 | 3.12% | 273,422.8 | 3.65% | 265,877.4 | 1.61% | 313,200.4 | 3.8 µM | cells remained unaffected | 53.4% |  |  | 
4 | OC[C@H]1O[C@@H](Oc2cc(O)cc(/C=C/c3ccc(O)cc3)c2)[C@H](O)[C@@H](O)[C@@H]1O [polydatin] |  |  |  |  |  |  |  |  |  |  |  |  |  |  |  |  |  |  | robust inhibition | 
5 | Oc1ccc(/C=C/c2cc(O)cc(O)c2)cc1 [resveratrol] |  |  |  |  |  |  |  |  |  |  |  |  |  |  |  |  |  |  | robust inhibition | significantly suppress tumor growth
6 | avastin: Bevacizumab (avastin), first monoclonal antibody targeting the VEGF protein; positive control | attenuate the NF-κB signal |  |  |  |  |  |  |  |  |  |  |  |  |  |  |  |  |  |  | 
